Results as given in PMC3813382 (The Journal of General Physiology, 2013).
Positions count from the first letter of the chain named.

Tests used:
F240C Slo2.1 channels = target: T1, F240C Slo2.1 channels (Homo sapiens, UniProt Q6UVM3, F240C); test: Activation of ISlo2.1 by NFA, two-electrode voltage clamp in oocytes; format: cell-based
T1 sequence (Q6UVM3 1-1135 F240C): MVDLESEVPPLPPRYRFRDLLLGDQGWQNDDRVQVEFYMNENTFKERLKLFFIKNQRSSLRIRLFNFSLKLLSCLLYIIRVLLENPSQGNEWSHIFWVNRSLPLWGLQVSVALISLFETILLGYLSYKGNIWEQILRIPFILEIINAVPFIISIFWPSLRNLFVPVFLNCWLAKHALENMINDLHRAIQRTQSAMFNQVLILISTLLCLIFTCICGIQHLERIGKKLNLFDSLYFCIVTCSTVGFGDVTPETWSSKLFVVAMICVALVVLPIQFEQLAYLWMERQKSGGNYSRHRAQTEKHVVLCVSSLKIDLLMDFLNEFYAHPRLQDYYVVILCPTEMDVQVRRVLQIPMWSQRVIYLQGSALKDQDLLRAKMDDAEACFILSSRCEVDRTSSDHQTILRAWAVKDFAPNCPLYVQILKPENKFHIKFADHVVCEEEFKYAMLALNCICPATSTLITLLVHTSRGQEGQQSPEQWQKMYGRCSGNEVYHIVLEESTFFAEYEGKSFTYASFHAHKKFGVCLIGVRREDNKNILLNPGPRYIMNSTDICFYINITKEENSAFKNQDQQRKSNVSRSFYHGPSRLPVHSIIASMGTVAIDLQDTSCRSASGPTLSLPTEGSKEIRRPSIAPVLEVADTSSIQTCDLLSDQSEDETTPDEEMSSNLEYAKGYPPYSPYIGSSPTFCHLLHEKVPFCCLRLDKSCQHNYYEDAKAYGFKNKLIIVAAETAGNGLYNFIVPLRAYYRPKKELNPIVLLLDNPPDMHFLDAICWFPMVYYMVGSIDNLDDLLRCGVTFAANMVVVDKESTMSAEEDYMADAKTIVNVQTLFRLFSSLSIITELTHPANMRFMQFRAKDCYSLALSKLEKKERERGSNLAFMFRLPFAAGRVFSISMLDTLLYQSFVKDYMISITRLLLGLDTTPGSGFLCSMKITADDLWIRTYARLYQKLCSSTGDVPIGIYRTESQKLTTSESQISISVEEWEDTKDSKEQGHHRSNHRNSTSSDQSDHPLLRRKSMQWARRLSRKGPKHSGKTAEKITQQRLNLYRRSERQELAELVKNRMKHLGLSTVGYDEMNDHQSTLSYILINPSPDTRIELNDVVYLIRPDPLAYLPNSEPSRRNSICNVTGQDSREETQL

M262A Slo2.1 channels = target: T2, M262A Slo2.1 channels (Homo sapiens, UniProt Q6UVM3, M262A); test: as above; format: cell-based
T2 sequence (Q6UVM3 1-1135 M262A): T1 sequence (Q6UVM3 1-1135 F240C) with C240F, M262A

- activation of F240C currents by NFA (F240C Slo2.1 channels; KCM211 solution ([K^+]e 2 mM)): not further activated by NFA
- activation of F240C currents by NFA (F240C Slo2.1 channels; [K^+]e elevated to 104 mM, 1 mM NFA): further activated by 1 mM NFA
- EC50 (M262A Slo2.1 channels): 660 ± 130 µM
- Hill coefficient nH of NFA activation (M262A Slo2.1 channels; M262A): 1.4 ± 0.06
SMILES: O=C(O)c1cccnc1Nc1cccc(C(F)(F)F)c1 [NFA, niflumic acid]
